Assays:
Format in all cases: in vivo
Sorghum halepense = assay: Further glasshouse test versus other ACCase-inhibiting herbicides, Table B2-4; settings: 21 days after application
Description: (§1) Further tests were employed to test the efficacy of a compound of Formula I versus other ACCase-inhibiting herbicides. The five main targets were Lolium multiflorum, Eleusine indica, Digitaria insularis, Sorghum halepense and Echinochloa crus-galli. Collectively, the populations contained all the major target-site resistance mutations affecting ACCase herbicides. Two L. multiflorum (LM-NTSR-1 and LM-NTSR-2) and one E. crus-galli (ECG-NTSR-1) populations were characterised exclusively by non-target-site resistance (“NTSR”). The target-site resistant L. multiflorum and E. indication populations were 100% homozygous for different ACCase mutations whilst the D. insularis, S. halepense and E. crus-galli samples contained a mixture of homozygous wild and mutant individuals at different genotypic frequencies. Additional underlying NTSR cannot be ruled out in the populations characterised by target-site resistance.
(§2) Around 50 seeds of each of the 24 weed populations were sown in 12-cm pots containing a mixture of peat and compost in a 1:1 ratio. The pots were watered, fertilised and kept in controlled glasshouse conditions set at 24° C./16 hr day, 18° C. night, 65% relative humidity, and a photon flux density of approximately 250 μmol quanta m^−2 s^−1 for Lolium multiflorum. The E. indica, D. insularis, S. halepense and E. crus-galli plants were kept in a separate glasshouse bay characterised by a 17 H photoperiod of 180 μmol m^−2 s^−1 with temperatures of 25° C. day and 19° C. night and 65% relative humidity. When the plants were at the two to four-leaf stage, they were treated with the various ACCase-inhibiting herbicides at 0, 15, 30, 60, 120 and 240 g ai ha^−1 in a spray cabinet mounted with a single mobile Teejet flat fan nozzle (11002VS) calibrated to deliver 200 L ha^−1 at 200 kPa. The L. multiflorum populations were treated by a compound of Formula Ic, clodinafop-propargyl, pinoxaden, cycloxydim and clethodim and the warm season grass weeds E. indica, D. insularis, S. halepense and E. crus-galli were sprayed with a Compound Ic and the commonly employed haloxyfop-methyl and clethodim. Three replicate pots were used per population. Plants were assessed for visual damage compared to the untreated control 21 days after application (0=0% damage; 100=100% damage).

Lolium multiflorum [1] = assay: Glasshouse post-emergence test, visual damage, Table B1-1
Method: Seeds of a variety of test species are sown in standard soil in pots. For each treatment, three replicate pots containing 10-15 plants per one-inch pot were sprayed at the 2-3 leaf stage. Clethodim and Compound (Ic) were each applied at 15, 30, 60 and 120 g ai/ha. The test plants are then grown in a glasshouse under controlled conditions in a glasshouse (at 24/16° C., day/night; 14 hours light; 65% humidity) and watered twice daily. […]

Echinochloa Crus-galli = assay: Further glasshouse test versus other ACCase-inhibiting herbicides, Table B2-5; settings: 21 days after application
Description: as §1, §2

Lolium multiflorum [2] = assay: Further glasshouse test versus other ACCase-inhibiting herbicides, Table B2-1; settings: 21 days after application
Description: as §1, §2

Volunteer corn = assay: 26 field trials, control of volunteer corn, Table B1-6; settings: 100 g/ha

Molecule CCSC(C)CC1CC(=O)C(/C(CC)=N/OC/C=C/Cl)=C(O)C1 (centres unmarked) [Clethodim, clethodim] has a visual damage (Sorghum halepense; biotype Sensitive, 15 g/ha) of 83%, a visual damage (Sorghum halepense; biotype Sensitive, 30 g/ha) of 98% and a visual damage (Sorghum halepense; biotype Sensitive, 60 g/ha) of 100%. The visual damage (Sorghum halepense; biotype Sensitive, 120 g/ha) was 93%, the visual damage (Sorghum halepense; biotype Sensitive, 240 g/ha) was 98% and the visual damage (Sorghum halepense; biotype W2027C, 15 g/ha) was 50%. For the same molecule, the visual damage (Sorghum halepense; biotype W2027C, 30 g/ha) was 92%, the visual damage (Sorghum halepense; biotype W2027C, 60 g/ha) was 100% and the visual damage (Sorghum halepense; biotype W2027C, 120 g/ha) was 100%. It also gave a visual damage (Sorghum halepense; biotype W2027C, 240 g/ha) of 100%, a visual damage (Lolium multiflorum [1]; biotype CC2027 (homozygous), 15 g/ha, 14 days after application) of 53% and a visual damage (Lolium multiflorum [1]; biotype CC2027 (homozygous), 30 g/ha, 14 days after application) of 77%. For the same molecule, the visual damage (Lolium multiflorum [1]; biotype CC2027 (homozygous), 60 g/ha, 14 days after application) was 100%, the visual damage (Lolium multiflorum [1]; biotype CC2027 (homozygous), 120 g/ha, 14 days after application) was 100% and the visual damage (Lolium multiflorum [1]; biotype GG2078 (homozygous), 15 g/ha, 14 days after application) was 0%. It also gave a visual damage (Lolium multiflorum [1]; biotype GG2078 (homozygous), 30 g/ha, 14 days after application) of 20%, a visual damage (Lolium multiflorum [1]; biotype GG2078 (homozygous), 60 g/ha, 14 days after application) of 20% and a visual damage (Lolium multiflorum [1]; biotype GG2078 (homozygous), 120 g/ha, 14 days after application) of 50%. The visual damage (Lolium multiflorum [1]; biotype LL1781 (homozygous), 15 g/ha, 14 days after application) was 23%, the visual damage (Lolium multiflorum [1]; biotype LL1781 (homozygous), 30 g/ha, 14 days after application) was 37% and the visual damage (Lolium multiflorum [1]; biotype LL1781 (homozygous), 60 g/ha, 14 days after application) was 60%. The visual damage (Lolium multiflorum [1]; biotype LL1781 (homozygous), 120 g/ha, 14 days after application) was 70%, the visual damage (Lolium multiflorum [1]; biotype NN2041 (homozygous), 15 g/ha, 14 days after application) was 70% and the visual damage (Lolium multiflorum [1]; biotype NN2041 (homozygous), 30 g/ha, 14 days after application) was 100%. The visual damage (Lolium multiflorum [1]; biotype NN2041 (homozygous), 60 g/ha, 14 days after application) was 100%, the visual damage (Lolium multiflorum [1]; biotype NN2041 (homozygous), 120 g/ha, 14 days after application) was 100% and the visual damage (Lolium multiflorum [1]; biotype RR2088 (homozygous), 15 g/ha, 14 days after application) was 0%. For the same molecule, the visual damage (Lolium multiflorum [1]; biotype RR2088 (homozygous), 30 g/ha, 14 days after application) was 20%, the visual damage (Lolium multiflorum [1]; biotype RR2088 (homozygous), 60 g/ha, 14 days after application) was 60% and the visual damage (Lolium multiflorum [1]; biotype RR2088 (homozygous), 120 g/ha, 14 days after application) was 60%. It also gave a visual damage (Lolium multiflorum [1]; biotype SS1999 (homozygous), 15 g/ha, 21 DAA) of 27%, a visual damage (Lolium multiflorum [1]; biotype SS1999 (homozygous), 30 g/ha, 21 DAA) of 98% and a visual damage (Lolium multiflorum [1]; biotype SS1999 (homozygous), 60 g/ha, 21 DAA) of 100%. It also gave a visual damage (Lolium multiflorum [1]; biotype SS1999 (homozygous), 120 g/ha, 21 DAA) of 100%, a visual damage (Lolium multiflorum [1]; biotype Sensitive, 15 g/ha, 14 days after application) of 53% and a visual damage (Lolium multiflorum [1]; biotype Sensitive, 30 g/ha, 14 days after application) of 73%. The visual damage (Lolium multiflorum [1]; biotype Sensitive, 60 g/ha, 14 days after application) was 99%, the visual damage (Lolium multiflorum [1]; biotype Sensitive, 120 g/ha, 14 days after application) was 100% and the visual damage (Echinochloa Crus-galli; biotype Sensitive, 15 g/ha) was 100%. The visual damage (Echinochloa Crus-galli; biotype Sensitive, 30 g/ha) was 100%, the visual damage (Echinochloa Crus-galli; biotype Sensitive, 60 g/ha) was 100% and the visual damage (Echinochloa Crus-galli; biotype Sensitive, 120 g/ha) was 100%. It also gave a visual damage (Echinochloa Crus-galli; biotype Sensitive, 240 g/ha) of 100%, a visual damage (Echinochloa Crus-galli; biotype W2027C, 15 g/ha) of 83% and a visual damage (Echinochloa Crus-galli; biotype W2027C, 30 g/ha) of 100%. The visual damage (Echinochloa Crus-galli; biotype W2027C, 60 g/ha) was 100%, the visual damage (Echinochloa Crus-galli; biotype W2027C, 120 g/ha) was 100% and the visual damage (Echinochloa Crus-galli; biotype W2027C, 240 g/ha) was 100%. For the same molecule, the visual damage (Echinochloa Crus-galli; population ECG-NTSR-1 (non-target-site resistance), 15 g/ha) was 95%, the visual damage (Echinochloa Crus-galli; population ECG-NTSR-1 (non-target-site resistance), 30 g/ha) was 98% and the visual damage (Echinochloa Crus-galli; population ECG-NTSR-1 (non-target-site resistance), 60 g/ha) was 100%. The visual damage (Echinochloa Crus-galli; population ECG-NTSR-1 (non-target-site resistance), 120 g/ha) was 100%, the visual damage (Echinochloa Crus-galli; population ECG-NTSR-1 (non-target-site resistance), 240 g/ha) was 100% and the visual damage (Lolium multiflorum [2]; biotype C2088R, 15 g/ha) was 0%. The visual damage (Lolium multiflorum [2]; biotype C2088R, 30 g/ha) was 13%, the visual damage (Lolium multiflorum [2]; biotype C2088R, 60 g/ha) was 40% and the visual damage (Lolium multiflorum [2]; biotype C2088R, 120 g/ha) was 90%. The visual damage (Lolium multiflorum [2]; biotype C2088R, 240 g/ha) was 100%, the visual damage (Lolium multiflorum [2]; biotype D2078G, 15 g/ha) was 10% and the visual damage (Lolium multiflorum [2]; biotype D2078G, 30 g/ha) was 17%. The visual damage (Lolium multiflorum [2]; biotype D2078G, 60 g/ha) was 27%, the visual damage (Lolium multiflorum [2]; biotype D2078G, 120 g/ha) was 70% and the visual damage (Lolium multiflorum [2]; biotype D2078G, 240 g/ha) was 100%. The visual damage (Lolium multiflorum [2]; biotype I1781L, 15 g/ha) was 23%, the visual damage (Lolium multiflorum [2]; biotype I1781L, 30 g/ha) was 53% and the visual damage (Lolium multiflorum [2]; biotype I1781L, 60 g/ha) was 70%. It also gave a visual damage (Lolium multiflorum [2]; biotype I1781L, 120 g/ha) of 100%, a visual damage (Lolium multiflorum [2]; biotype I1781L, 240 g/ha) of 100% and a visual damage (Lolium multiflorum [2]; biotype Sensitive, 15 g/ha) of 100%. For the same molecule, the visual damage (Lolium multiflorum [2]; biotype Sensitive, 30 g/ha) was 100%, the visual damage (Lolium multiflorum [2]; biotype Sensitive, 60 g/ha) was 100% and the visual damage (Lolium multiflorum [2]; biotype Sensitive, 120 g/ha) was 100%. It also gave a visual damage (Lolium multiflorum [2]; biotype Sensitive, 240 g/ha) of 100%, a visual damage (Lolium multiflorum [2]; biotype W1999S, 15 g/ha) of 27% and a visual damage (Lolium multiflorum [2]; biotype W1999S, 30 g/ha) of 98%. For the same molecule, the visual damage (Lolium multiflorum [2]; biotype W1999S, 60 g/ha) was 100%, the visual damage (Lolium multiflorum [2]; biotype W1999S, 120 g/ha) was 100% and the visual damage (Lolium multiflorum [2]; biotype W1999S, 240 g/ha) was 100%. It also gave a visual damage (Lolium multiflorum [2]; biotype W2027C, 15 g/ha) of 63%, a visual damage (Lolium multiflorum [2]; biotype W2027C, 30 g/ha) of 100% and a visual damage (Lolium multiflorum [2]; biotype W2027C, 60 g/ha) of 100%. It also gave a visual damage (Lolium multiflorum [2]; biotype W2027C, 120 g/ha) of 100%, a visual damage (Lolium multiflorum [2]; biotype W2027C, 240 g/ha) of 100% and a visual damage (Lolium multiflorum [2]; population LM-NTSR-1 (non-target-site resistance), 15 g/ha) of 63%. It also gave a visual damage (Lolium multiflorum [2]; population LM-NTSR-1 (non-target-site resistance), 30 g/ha) of 97%, a visual damage (Lolium multiflorum [2]; population LM-NTSR-1 (non-target-site resistance), 60 g/ha) of 100% and a visual damage (Lolium multiflorum [2]; population LM-NTSR-1 (non-target-site resistance), 120 g/ha) of 100%. For the same molecule, the visual damage (Lolium multiflorum [2]; population LM-NTSR-1 (non-target-site resistance), 240 g/ha) was 100%, the visual damage (Lolium multiflorum [2]; population LM-NTSR-2 (non-target-site resistance), 15 g/ha) was 3% and the visual damage (Lolium multiflorum [2]; population LM-NTSR-2 (non-target-site resistance), 30 g/ha) was 55%. For the same molecule, the visual damage (Lolium multiflorum [2]; population LM-NTSR-2 (non-target-site resistance), 60 g/ha) was 70%, the visual damage (Lolium multiflorum [2]; population LM-NTSR-2 (non-target-site resistance), 120 g/ha) was 75% and the visual damage (Lolium multiflorum [2]; population LM-NTSR-2 (non-target-site resistance), 240 g/ha) was 95%. The Control (14d) (Volunteer corn; 14d) was 90% and the Control (28d) (Volunteer corn; 28d) was 96%.

Source: US20260215428A1, “WEED CONTROL METHOD” (SYNGENTA CROP PROTECTION AG, priority 2023, published 2026)
